From patent US20050250801A1, “Method of treating cancer with azaspirane compositions” (priority 2003, published 2005)

Tested on: T84 cells
Test: Inhibition of T84 colon carcinoma cell proliferation (WST-1, Example 1)
Format: cell-based
Settings: Homo sapiens, 24 hours incubation
Method: The effect of N,N,-diethyl-8,8-dipropyl-2-azaspiro[4,5]decane-2-propanamine dimaleate (Compound 1) on proliferation of human colon carcinoma cells T84 and CaCo-2 was evaluated in the following manner. Cell proliferation was measured by WST-1 dye conversion to Formazan assay using the proliferation kit from BioVision, CA. The procedure used was essentially as described in the manufacture's instructions. Briefly, cells were grown for 7 days until they formed semi-confluent monolayers. On day 7, cells were trypsinized and resuspended in 96-well plates at a concentration of approximately 40,000 cells/well and allowed to grow for 24 hours at 37° C.
Subsequently, fresh media containing increasing concentrations of Compound 1, as indicated in the FIG. 1, were added and assay plates were further incubated for an additional period of 24 hours. A solution of 5 μl of WST-1 dye per well was added and plates were read after 4 hours at 440 and 600 nm using an ELISA plate reader. The absorbance at 440 minus that at 600 nm is directly proportion to the number of proliferating cells. All samples were measured in triplicate and results were expressed as an average of three determinations.

**Q.** For CCCC1(CCC)CCC2(CCN(CCCN(CC)CC)C2)CC1.O=C(O)/C=C\C(=O)O.O=C(O)/C=C\C(=O)O [Compound 1, N,N,-diethyl-8,8-dipropyl-2-azaspiro[4,5]decane-2-propanamine dimaleate], which IC50 is on record?
**A.** The IC50 was 0.625 to 1.25 µM.
